Data on three compounds can be found in US9089568B2, “Method of using compatible solutes containing ectoine and/or hydroxyectoine” (Bitop AG, priority 2005, dated 2015).

For experiment [1], the system named is amyloid plaques. The experiment can be described thus: amyloid plaque formation in mice after oral application. In kind it is in vivo. An excerpt:
Unexpectedly, it has now been ascertained from investigations with mice is involving the oral application of compatible solutes ectoine, hydroxyectoine and firoin A that this enabled the formation of amyloid plaques to be reduced. Likewise, through the administration of compatible solutes the occurrence of neuropathologic effects could be reduced. […] It is to be assumed that such a preventive effect but nevertheless the therapeutic effect as well is primarily attributable to the amyloid-inhibiting properties of “compatible solutes”.

The test system of experiment [2] is chronically inflammable intestinal disease. The experiment can be described thus: mouse model for Crohn's disease, oral compatible solutes. Format: in vivo. Conditions: oral ingestion. The source says:
Moreover, immunological investigations have shown that the TH-2 TH-1 approach typically adopted for the chronically inflammable intestinal disease may to some extent be circumvented by “compatible solutes”. However, the positive effect of “compatible solutes” is not only limited to an alleviation of the symptoms of chronically inflammable intestinal diseases but in addition is characterized by a pronounced preventive potential. […] It is to be assumed that such a preventive effect but also the therapeutic effect is primarily attributable to the anti-inflammatory properties of “compatible solutes” which on the one hand are aimed at the intestinal epithelial cell but also at the helper T lymphocytes deemed to be the cause of the pathogenesis.

Experiment [3] deals with amyloid fibrils. Conditions: in vitro; Arora et al. (2004); cited from earlier work.

Take `CC1=NCC(O)C(C(=O)O)N1` (centres unmarked) [hydroxyectoine, 2-methyl-4-carboxy-5-hydroxy-3,4,5,6-tetrahydropyrimidine]: the “formation of amyloid plaques” value in experiment [1] was “reduced”.

Consider `NC(=O)[C@H](CO)O[C@@H]1O[C@H](CO)[C@@H](O)[C@H](O)[C@@H]1O` [firoin A, mannosylglyceramide], for which the “formation of amyloid plaques” value in experiment [1] was “reduced”.

Take `CC1=NCCC(C(=O)O)N1` (centres unmarked) [ectoine, 2-methyl-4-carboxy-3,4,5,6-tetrahydropyrimidine]: the “course of chronically inflammable intestinal diseases” value in experiment [2] is listed as “favorably influenced”. Further, in experiment [1], the “formation of amyloid plaques” value is “reduced”. Besides, the “formation of protein deposits, so-called amyloid fibrils” value in experiment [3] was “inhibit”.
